Consider two molecules from patent publication US20230074252A1, “DOSAGES AND METHODS FOR TREATING PULMONARY ARTERIAL HYPERTENSION WITH RODATRISTAT” (Altavant Sciences GmbH, priority 2020, published 2023).

Format in all cases: in vitro ADME
Data set [1] deals with T1, CYP2B6 (Homo sapiens, UniProt P20813).
T1 sequence (P20813 1-491): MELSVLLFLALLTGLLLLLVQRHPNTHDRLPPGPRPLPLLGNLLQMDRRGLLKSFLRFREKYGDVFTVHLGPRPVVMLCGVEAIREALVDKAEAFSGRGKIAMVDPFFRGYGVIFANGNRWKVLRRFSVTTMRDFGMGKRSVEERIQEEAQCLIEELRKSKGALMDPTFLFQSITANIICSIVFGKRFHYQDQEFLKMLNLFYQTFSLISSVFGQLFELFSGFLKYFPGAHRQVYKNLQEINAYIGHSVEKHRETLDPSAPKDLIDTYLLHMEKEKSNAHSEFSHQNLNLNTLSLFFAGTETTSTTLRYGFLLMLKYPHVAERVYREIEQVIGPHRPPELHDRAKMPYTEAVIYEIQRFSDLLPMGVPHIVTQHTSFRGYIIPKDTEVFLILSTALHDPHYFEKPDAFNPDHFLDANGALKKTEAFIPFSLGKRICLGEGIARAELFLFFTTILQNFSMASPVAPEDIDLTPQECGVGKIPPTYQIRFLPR
Briefly: Direct and time-dependent CYP inhibition, pooled human liver microsomes. Also noted: from tissue; host or cells: pooled human liver microsomes (n=200 donors). To be noted: for IC50: human liver microsomes, read-out: In vitro IC50, direct inhibition, CYP2B6. As for the experimental part: (§1) “mM^”=millimolar. CYP induction was evaluated using cultured human hepatocytes (from 3 donors) treated once daily for 3 days with RE/R concentrations to […].
(§2) The competitive inhibition of specific CYP isoforms was investigated for RVT-1201 and KAR5417 in human liver microsomes (HLM) (XT155056). Of the […] evaluated in vitro (CYP1A2, CYP2B6, CYP2C8, CYP2C9, CYP2D6, CYP3A4, CYP3A5), RVT-1201 IC50 estimates were determined for CYP2B6, CYP2C8 and CYP3A4 only. […] For each IC50 estimate, substrate concentration and Km were used to estimate RVT-1201 and KAR5417 Ki.
(Liver microsomes are a subcellular fraction often used to study metabolism.)

The next data set deals with CYP2D6 (Homo sapiens, UniProt P10635). Described as above. Also noted: from tissue; host or cells: pooled human liver microsomes (n=200 donors). As for the experimental part: as §1, §2
The test system of another data set is CYP3A4. Briefly: CYP mRNA induction, cultured human hepatocytes from 3 donors. The settings on record: for Highest induction of CYP3A4 by an individual donor / Induction of CYP3A4 mRNA, mean±SD relative to control: 20 μM; for Inducer classification, CYP3A4: clinically relevant concentrations; for In vitro induction parameter Emax, CYP3A4 / EC50: mRNA, human hepatocytes; for EC50: read-out: In vitro induction parameter EC50, CYP3A4; for Calculated R3 Value, CYP3A4: predicted @ 600 mg BID. As for the experimental part: as §1
(§3) CYP induction was evaluated in vitro using cultured human hepatocytes from 3 donors. Rodatristat ethyl and rodatristat caused negligible induction of CYP1A2 (<2% control for the most sensitive responder), CYP2B6 (mean±SD values relative to control of 16.2±20.0% and 15.0±17.9%, respectively), and CYP3A4 (7.1±6.41% and 10.3±11.9%, respectively) mRNA at 20 μM (the highest concentration studied). […] The highest values for induction of CYP2B6 by an individual donor at all concentrations tested were 60.1% and 57.4% at 10 μM for rodatristat ethyl and rodatristat, respectively, and for CYP3A4 were 13.3% and 23.0% at 20 μM, respectively.
(§4) The induction of specific CYP isoforms (CYP1A2, CYP2B6, CYP3A4) was investigated for RVT-1201 and KAR5417 in human hepatocytes (HH) (XT153040). […] CYP2B6 and CYP3A4 mRNA induction by RVT-1201 and KAR5417 (Emax and EC50) were used to estimate the PBPK model parameters Indmax and IndC50. Within the PBPK model, IndC50 is equal to EC50, the concentration of inducer that supports half maximal induction of the CYP isoform (estimated by a sigmoid three parameter fit to in vitro concentration-dependent mRNA induction data). Within the PBPK model, Indmax represents the maximum fold induction relative to incubation with vehicle only (vehicle=1). The reported Emax for RVT-1201 and KAR5417 was estimated by sigmoid three parameter fit to in vitro concentration-dependent mRNA induction data. Baseline activity was set equal to zero, rather than one, therefore reported Emax was increased by adding one to each value to estimate Indmax. CYP2B6 induction data was used in the PBPK model as reported. CYP3A4 induction data was scaled based on the maximum induction by rifampin (at 20 μM). Scaling of CYP3A4 induction using rifampin data from the same system leverages the extensive literature on rifampin induction in vitro and in vivo and allows adjustment of in vitro induction data based on the relative performance of rifampin in each in vitro incubation, and the empirical relationship between rifampin induction of CYP3A4 in vitro and in vivo.

Another data set concerns CYP1A2. The data set is described as above. To be noted: clinically relevant concentrations. As for the experimental part:
as §1, §3, §4

In data set [2] the test system is CYP2B6. Described as above. To be noted: for Highest induction of CYP2B6 by an individual donor: 10 μM; for Induction of CYP2B6 mRNA, mean±SD relative to control: 20 μM; for Inducer classification, CYP2B6: clinically relevant concentrations; for In vitro induction parameter Emax, CYP2B6 / EC50: mRNA, human hepatocytes; for EC50: read-out: In vitro induction parameter EC50, CYP2B6; for Calculated R3 Value, CYP2B6: predicted @ 600 mg BID. As for the experimental part: as §1, §3, §4

Sequence of CYP2D6 (P10635 whole entry): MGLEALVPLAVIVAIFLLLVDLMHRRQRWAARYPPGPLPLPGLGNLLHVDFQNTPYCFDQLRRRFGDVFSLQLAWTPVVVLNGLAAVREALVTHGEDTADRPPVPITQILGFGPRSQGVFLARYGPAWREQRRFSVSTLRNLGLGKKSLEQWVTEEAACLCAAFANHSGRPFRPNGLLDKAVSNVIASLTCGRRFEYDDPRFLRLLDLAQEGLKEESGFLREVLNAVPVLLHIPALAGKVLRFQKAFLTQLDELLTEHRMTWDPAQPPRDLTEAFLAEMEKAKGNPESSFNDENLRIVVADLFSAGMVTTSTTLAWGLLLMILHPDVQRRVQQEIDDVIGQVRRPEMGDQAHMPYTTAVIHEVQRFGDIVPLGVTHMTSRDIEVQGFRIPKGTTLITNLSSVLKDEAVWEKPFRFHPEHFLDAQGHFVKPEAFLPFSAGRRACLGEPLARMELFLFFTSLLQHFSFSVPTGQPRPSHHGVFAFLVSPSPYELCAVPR

What is called IC50 is the concentration that gives 50% inhibition. Usually EC50 stands for the concentration giving half of the maximal effect. Consider `CCOC(=O)[C@@H]1CC2(CCN(c3cc(O[C@H](c4ccc(Cl)cc4-c4ccccc4)C(F)(F)F)nc(N)n3)CC2)CN1` [Rodatristat ethyl, (S)-ethyl 8-(2-amino-6-((R)-1-(5-chloro-[1,1′-biphenyl]-2-yl)-2,2,2-trifluoroethoxy)pyrimidin-4-yl)-2,8-diazaspiro[4.5]decane-3-carboxylate], for which the half-maximal inhibitory concentration (IC50) at CYP2B6 [1] is 13 µM. Also, the “Calculated R1 Value, CYP2B6” value on CYP2B6 [1] (predicted @ 600 mg BID, R1=1+(Imax,unbound/Ki)) is less than 1.02. Further, the IC50 at CYP2D6 (human liver microsomes, read-out: In vitro IC50, direct inhibition, CYP2D6) was more than 30 µM. Also, in the data set with CYP3A4, the “Highest induction of CYP3A4 by an individual donor” value stood at 13.3%; the “Induction of CYP3A4 mRNA, mean±SD relative to control” value was 7.1±6.41%; the “Inducer classification, CYP3A4” value is given as “potential weak inducers”; the “In vitro induction parameter Emax, CYP3A4” value worked out at 4.53. Besides, in the data set on CYP3A4, the EC50 came out at 15.6 µM and the “Calculated R3 Value, CYP3A4” value was 0.925. Besides, the “Calculated R3 Value, CYP3A4” value in the data set on CYP3A4 (listed as rodatristat ethyl) is reported as 0.478. Also, the “Inducer classification, CYP1A2” value in the data set on CYP1A2 is recorded as “not considered inducers”. In addition, in the data set with CYP2B6 [2], the “Highest induction of CYP2B6 by an individual donor” value amounted to 60.1%; the “Induction of CYP2B6 mRNA, mean±SD relative to control” value amounted to 16.2±20.0%; the “Inducer classification, CYP2B6” value is recorded as “potentially weak to moderate inducers”; the “In vitro induction parameter Emax, CYP2B6” value came to 3.1. Further, in the data set with CYP2B6 [2], the EC50 was 6.16 µM and the “Calculated R3 Value, CYP2B6” value is recorded as 0.960.

In general, inhibition refers to the relative decrease from the control value, in per cent. A lower inhibition goes with little suppression. For `Nc1nc(O[C@H](c2ccc(Cl)cc2-c2ccccc2)C(F)(F)F)cc(N2CCC3(CC2)CN[C@H](C(=O)O)C3)n1` [Rodatristat, (S)-8-(2-amino-6-((R)-1-(5-chloro-[1,1′-biphenyl]-2-yl)-2,2,2-trifluoroeth-oxy)pyrimidin-4-yl)-2,8-diazaspiro[4.5]decane-3-carboxylic acid], the IC50 at CYP2B6 [1] is more than 30 µM. Also, on CYP2B6 [1] (human, pooled human liver microsomes, 30 μM, range given across CYPs 2B6, 2C9 and 3A4/5), the inhibition at 30 µM lay within 27 to 45%. The “Direct inhibition of CYP2D6 (in words)” value on CYP2D6 is given as “did not inhibit”. Also, in the data set with CYP3A4, the “Highest induction of CYP3A4 by an individual donor” value is 23.0%; the “Induction of CYP3A4 mRNA, mean±SD relative to control” value worked out at 10.3±11.9%; the “Inducer classification, CYP3A4” value is on record as “potential weak inducers”; the “In vitro induction parameter Emax, CYP3A4” value came to 4.5. For the same molecule, in the data set with CYP3A4, the EC50 was determined as 26.7 µM and the “Calculated R3 Value, CYP3A4” value is 0.476. Further, the “Inducer classification, CYP1A2” value in the data set with CYP1A2 is given as “not considered inducers”. Moreover, in the data set with CYP2B6 [2], the “Highest induction of CYP2B6 by an individual donor” value stood at 57.4%; the “Induction of CYP2B6 mRNA, mean±SD relative to control” value is reported as 15.0±17.9%; the “Inducer classification, CYP2B6” value is recorded as “potentially weak to moderate inducers”; the “In vitro induction parameter Emax, CYP2B6” value is reported as 2.95. Moreover, in the data set with CYP2B6 [2], the EC50 is 5.6 µM and the “Calculated R3 Value, CYP2B6” value is reported as 0.766.
